Assay results published in patent US10947196B2, “Beta adrenergic agonist and methods of using the same” (CURASEN THERAPEUTICS, INC., priority 2019, dated 2021).
Where two headings read alike, the source gives them in different places.

How the values were obtained:
β1-adrenergic receptor = β1-adrenergic receptor (Homo sapiens (Human), UniProt P08588); experiment: cAMP Gs dynamic HTRF assay, β1 expressing CHO cells; assay type: cell-based; settings: B1-AR
Procedure: (§1) cAMP homogeneous time-resolved fluorescence (HTRF). Compound efficacy was determined using the cAMP Gs dynamic HTRF assay (Cisbio, catalog #62AM4PEC) largely following the manufacturer's instructions, also detailed below.
(§2) Compound preparation. […] Standard serial dilution curves were 10-point, 5-fold dilutions starting from a highest concentration of 10 μM. […] Assay plates were centrifuged at 500×g for 10 seconds. Compounds and IBMX were prepared at 2× final dose to compensate for addition of cells.
(§3) Cell preparation. 1× stimulation buffer, washing PBS (Dulbecco's phosphate-buffered saline, −Mg −Ca; Caisson Labs, catalog #PBL01), assay PBS (Dulbecco's phosphate-buffered saline, +Mg, +Ca; Caisson Labs, catalog #PBL02) and Versene (0.02% EDTA disodium salt solution in PBS without calcium or magnesium; Caisson Labs, catalog #EDL01) were pre-warmed to 37° C. Cells expressing beta-adrenergic receptor were washed in washing PBS to remove growth medium and then released from the surface by incubating with Versene for 5-10 minutes at 37° C. Cells were harvested using assay PBS, counted manually by hemocytometer or by an automated cell counter, pelleted by centrifugation (200×g, 5 minutes) and resuspended in 37° C. 1× stimulation buffer to a final density of 1.5×10^6 cells/mL. 5 μL of the suspended cell solution (7500 cell total) were added to all wells of the 384 well assay plate, the assay plate was covered with an Axygen® plate seal (Corning PCR-SP) and incubated in a humidified 37° C. environment supplemented with 5% CO2 for 30 minutes.
(§4) HTRF reagent addition, reading and data analysis. After 30 minutes of cell stimulation with test compound, the assay plates were centrifuged at 500×g for 10 seconds, and incubation was stopped with the addition of 5 μL cAMP-D2 acceptor, diluted 1:21 in detection and lysis buffer 2 (Cisbio 62CL2FDF) was added to all cells. Subsequently, 5 μL Anti-cAMP-Eu Donor, diluted 1:21 in detection and lysis buffer 2, was added to cells. Plates were sealed and reactions gently ‘vortexed’ at 900 rpm on a Heidolph Titramax 1000 for at least 30 minutes at room temperature. Plates were centrifuged again at 500×g for 10 seconds, and HTRF was measured using a Tecan Spark plate reader at 50 flashes per well. […] Potency estimates (EC50) were derived from the four-parameter nonlinear regression of the concentration-effect curve and an estimate of relative efficacy was determined by comparing the magnitude of the test compound HTRF signal window (min−max dose) with the signal window of the full agonist control, isoproterenol.

β2 adrenergic receptor = β2 adrenergic receptor (Homo sapiens (Human), UniProt P07550); experiment: cAMP Gs dynamic HTRF assay, β2 expressing CHO cells; assay type: cell-based; settings: B2-AR
Procedure: as §1, §2, §3, §4

[1] = CHO-K cells, read-out: Average EC50 [Receptor subtype: B1-AR, Cell type: CHO-K]
[2] = CHO-K cells, read-out: Average EC50 [Receptor subtype: B2-AR, Cell type: CHO-K]
[3] = CHO-K1 (HitHunter), read-out: Average pEC50 [Receptor subtype: B2-AR, Cell type: CHO-K1 (HitHunter)] (converted)
[4] = CHO-K1 (HitHunter), read-out: Average pEC50 [Receptor subtype: B1-AR, Cell type: CHO-K1 (HitHunter)] (converted)

β2 adrenergic receptor, sequence (P07550 whole entry, species assumed): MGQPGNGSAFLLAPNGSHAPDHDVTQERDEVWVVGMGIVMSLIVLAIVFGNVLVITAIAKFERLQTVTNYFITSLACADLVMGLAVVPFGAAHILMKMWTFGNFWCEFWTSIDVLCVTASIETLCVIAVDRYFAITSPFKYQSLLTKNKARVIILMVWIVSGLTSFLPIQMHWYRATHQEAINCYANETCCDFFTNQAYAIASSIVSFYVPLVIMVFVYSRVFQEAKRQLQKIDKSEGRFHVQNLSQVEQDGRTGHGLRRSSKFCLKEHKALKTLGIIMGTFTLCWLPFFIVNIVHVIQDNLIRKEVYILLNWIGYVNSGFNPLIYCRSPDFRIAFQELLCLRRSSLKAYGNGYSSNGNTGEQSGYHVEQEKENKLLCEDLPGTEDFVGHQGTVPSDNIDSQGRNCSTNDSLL
β1-adrenergic receptor, sequence (P08588 whole entry, species assumed): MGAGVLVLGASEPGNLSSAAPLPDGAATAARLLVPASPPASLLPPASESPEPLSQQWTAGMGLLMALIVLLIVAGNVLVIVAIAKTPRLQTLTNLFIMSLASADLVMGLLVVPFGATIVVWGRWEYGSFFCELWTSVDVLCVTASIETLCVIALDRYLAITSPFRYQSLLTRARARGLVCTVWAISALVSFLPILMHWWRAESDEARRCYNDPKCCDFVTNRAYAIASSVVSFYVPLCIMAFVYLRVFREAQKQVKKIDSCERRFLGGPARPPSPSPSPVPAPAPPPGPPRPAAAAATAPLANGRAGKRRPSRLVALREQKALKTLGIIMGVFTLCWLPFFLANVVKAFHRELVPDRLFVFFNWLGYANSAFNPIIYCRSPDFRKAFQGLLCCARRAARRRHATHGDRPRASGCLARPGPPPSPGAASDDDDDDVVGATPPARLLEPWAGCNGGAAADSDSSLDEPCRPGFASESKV

| SMILES | Average pEC50 [Receptor subtype: B1-AR; Cell type: CHO-K1 (HitHunter)] (β1-adrenergic receptor; CHO-K1 (HitHunter)) | EC50 (β1-adrenergic receptor; [1]) [µM] | Average pEC50 [Receptor subtype: B2-AR; Cell type: CHO-K1 (HitHunter)] (β2 adrenergic receptor; CHO-K1 (HitHunter)) | EC50 (β2 adrenergic receptor; [2]) [µM] | EC50 (β2 adrenergic receptor; [3]) [µM] | EC50 (β1-adrenergic receptor; [4]) [µM] |
| --- | --- | --- | --- | --- | --- | --- |
| CC(C)(C)NC[C@@H](O)c1cccc(C#N)n1 [Compound 03-48, (R)-6-(2-(tert-butylamino)-1-hydroxyethyl)picolinonitrile] | D (D < 6) | > 1 | C-D | > 1 | – | – |
| CC(C)c1ncccc1[C@@H](O)CNC(C)(C)C [Compound 03-51] | D (D < 6) | > 1 | – | > 1 | > 1 | – |
| CC(C)(C)NC[C@H](O)c1cccnc1N1CCCC1 [Compound 03-60] | D (D < 6) | > 1 | – | > 1 | > 1 | – |
| Cc1ccc([C@@H](O)CNC(C)(C)C)c(C2CCCC2)n1 [Compound 03-65] | – | – | – | – | 0.01 to 0.1 | > 1 |
| CC(C)(C)NC[C@H](O)c1cccnc1C1CCC1 [Compound 03-68] | – | – | – | – | 0.01 to 0.1 | 0.1 to 1 |
| CC(C)(C)NC[C@H](O)c1cccnc1-n1nccn1 [Compound 03-74] | – | – | – | – | > 1 | > 1 |
| CC(C)(C)NC[C@H](O)c1cccnc1-c1c[nH]nn1 [Compound 03-76] | – | – | – | – | 0.1 to 1 | 0.1 to 1 |
| CC(C)(C)NC[C@H](O)c1cccc(N)n1 [Compound 03-98] | – | – | – | – | > 1 | > 1 |
| Cc1cc([C@H](O)CNC(C)(C)C)ccn1 [Compound 03-109] | – | – | – | – | 0.1 to 1 | 0.1 to 1 |
| CC(C)(C)NCC(O)c1cccnc1Cl (stereo not shown) [Compound 03-114] | – | 0.1 to 1 | – | 0.01 to 0.1 | 0.01 to 0.1 | 0.1 to 1 |
| CC(C)(C)NC[C@@H](O)c1cccc(C2CCOCC2)n1 [Compound 03-122] | – | > 1 | – | 0.1 to 1 | 0.1 to 1 | > 1 |
| CC(C)(C)NC[C@@H](O)c1ccc(C(F)(F)F)cn1 [Compound 03-125] | – | 0.1 to 1 | – | 0.1 to 1 | 0.1 to 1 | 0.1 to 1 |
| Cc1ccc([C@H](O)CNC(C)(C)C)nc1 [Compound 03-128] | – | > 1 | – | > 1 | > 1 | > 1 |

Next, values leading:

| Average pEC50 [Receptor subtype: B1-AR; Cell type: CHO-K1 (HitHunter)] (β1-adrenergic receptor; CHO-K1 (HitHunter)) | EC50 (β1-adrenergic receptor; [1]) [µM] | Average pEC50 [Receptor subtype: B2-AR; Cell type: CHO-K1 (HitHunter)] (β2 adrenergic receptor; CHO-K1 (HitHunter)) | EC50 (β2 adrenergic receptor; [2]) [µM] | EC50 (β2 adrenergic receptor; [3]) [µM] | EC50 (β1-adrenergic receptor; [4]) [µM] | SMILES |
| --- | --- | --- | --- | --- | --- | --- |
| – | – | – | – | > 1 | > 1 | C#Cc1ncccc1[C@@H](O)CNC(C)(C)C [Compound 03-75] |
| – | – | – | – | 0.1 to 1 | > 1 | CC(C)(C)NC[C@H](O)c1cccnc1C(C)(F)F [Compound 03-83] |
| – | – | – | – | 0.1 to 1 | > 1 | CNC(=O)c1cccc([C@@H](O)CNC(C)(C)C)n1 [Compound 03-85] |
| – | – | – | – | 0.1 to 1 | > 1 | CC(C)(C)NC[C@H](O)c1cccc(C2=NCCN2)n1 [Compound 03-86] |
| – | – | – | – | > 1 | > 1 | Cc1ccc([C@@H](O)CNC(C)(C)C)c(C2=CCCC2)n1 [Compound 03-90] |
| – | – | – | – | > 1 | > 1 | CC(C)(C)NC[C@H](O)c1cc(C(F)(F)F)cnc1C1=CCCC1 [Compound 03-92] |
| – | – | – | – | > 1 | > 1 | CC(C)(C)NC[C@H](O)c1ccnc(C#N)c1 [Compound 03-110] |
| C (C = <7-6) | 0.1 to 1 | – | 0.01 to 0.1 | 0.01 to 0.1 | – | CC(C)(C)NC[C@@H](O)c1cccc(-n2cccc2)n1 [Compound 03-124] |
| B (B = 8-7) | 0.01 to 0.1 | – | < 0.01 | < 0.01 | – | CC(C)(C)NC[C@H](O)c1cccc(-c2cccc(Cl)c2)n1 [Compound 03-129] |
| C (C = <7-6) | 0.1 to 1 | – | 0.01 to 0.1 | 0.01 to 0.1 | – | CC(C)(C)NC[C@@H](O)c1cccc(-c2cccc(Cl)c2)n1 [Compound 03-130] |
| B (B = 8-7) | 0.01 to 0.1 | – | < 0.01 | < 0.01 | – | CC(C)(C)NC[C@H](O)c1cccc(-c2cccc(F)c2)n1 [Compound 03-131] |
